Molecular target: T1, Wee1 kinase (Homo sapiens, UniProt P30291)
T1 construct: purchased Carnabio 05-177
Experiment: Wee1 time-resolved fluorescence equilibrium binding assay (probe displacement)
Conditions: GST-tagged-Wee1 kinase 2 nM, fluorescent probe 300 nM, 1 hour incubation; read-out: Wee-1 binding (Ki nM)
Experimental: Wee1 kinase was assayed using a time-resolved fluorescence equilibrium binding assay monitoring displacement of a rapidly reversible Oregon Green-labeled ATP-competitive kinase probe (N-(2-(2-(2-(4-(4-(5-chloro-4-(2-(1-hydroxycyclobutyl)thiazol-5-yl)-1H-pyrrolo[2,3-b]pyridin-2-yl)phenyl)piperazin-1-yl)ethoxy)ethoxy)ethyl)-2′,7′-difluoro-3′,6′-dihydroxy-3-oxo-3H-spiro[isobenzofuran-1,9′-xanthene]-5-carboxamide) by competitive Wee1 inhibitors.

T1 sequence (P30291 whole entry): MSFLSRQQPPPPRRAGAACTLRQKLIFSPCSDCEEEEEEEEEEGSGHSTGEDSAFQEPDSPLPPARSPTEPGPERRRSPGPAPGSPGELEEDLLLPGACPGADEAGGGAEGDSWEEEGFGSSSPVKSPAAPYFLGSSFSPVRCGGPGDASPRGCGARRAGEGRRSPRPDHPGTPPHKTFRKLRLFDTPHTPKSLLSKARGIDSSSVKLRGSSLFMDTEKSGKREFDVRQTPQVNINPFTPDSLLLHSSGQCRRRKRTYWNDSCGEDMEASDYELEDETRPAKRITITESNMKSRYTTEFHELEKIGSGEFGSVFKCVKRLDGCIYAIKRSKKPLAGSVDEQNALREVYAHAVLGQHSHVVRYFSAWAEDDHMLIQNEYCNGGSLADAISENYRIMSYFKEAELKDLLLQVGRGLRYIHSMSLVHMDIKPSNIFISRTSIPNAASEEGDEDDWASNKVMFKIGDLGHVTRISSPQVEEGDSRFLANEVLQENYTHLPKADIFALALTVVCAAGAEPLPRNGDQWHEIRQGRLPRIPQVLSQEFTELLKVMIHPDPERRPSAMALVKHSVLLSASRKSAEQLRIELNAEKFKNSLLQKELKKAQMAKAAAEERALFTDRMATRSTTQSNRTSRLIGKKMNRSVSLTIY

SMILES | Ki [nM]
CN1CCN(c2ccc(Nc3ncc4c(=O)c(-c5ccccc5Cl)c[nH]c4n3)cc2)CC1 [Example 1, 6-(2-chlorophenyl)-2-{[4-(4-methylpiperazin-1-yl)phenyl]amino}pyrido[2,3-d]pyrimidin-5(8H)-one] | 9.5
CN1CCN(c2ccc(Nc3ncc4c(=O)c(-c5ccccc5Cl)cn(-c5ccccc5)c4n3)cc2)CC1 [Example 2, 6-(2-chlorophenyl)-2-{[4-(4-methylpiperazin-1-yl)phenyl]amino}-8-phenylpyrido[2,3-d]pyrimidin-5(8H)-one] | 2.4
CN1CCN(c2ccc(Nc3ncc4c(=O)c(-c5ccccc5Cl)c(-c5ccccc5)[nH]c4n3)cc2)CC1 [Example 3, 6-(2-chlorophenyl)-2-{[4-(4-methylpiperazin-1-yl)phenyl]amino}-7-phenylpyrido[2,3-d]pyrimidin-5(8H)-one] | 37
CN1CCN(c2ccc(Nc3ncc4c(=O)c(-c5c(Cl)cccc5Cl)cn(-c5ccccc5)c4n3)cc2)CC1 [Example 4, 6-(2,6-dichlorophenyl)-2-{[4-(4-methylpiperazin-1-yl)phenyl]amino}-8-phenylpyrido[2,3-d]pyrimidin-5(8H)-one] | 0.1
CN1CCN(c2ccc(Nc3ncc4c(=O)c(-c5ccccc5Cl)cn(C)c4n3)cc2)CC1 [Example 5, 6-(2-chlorophenyl)-8-methyl-2-{[4-(4-methylpiperazin-1-yl)phenyl]amino}pyrido[2,3-d]pyrimidin-5(8H)-one] | 3.7
CN1CCN(c2ccc(Nc3ncc4c(=O)c(-c5c(Cl)cccc5Cl)c5n(c4n3)CCC5)cc2)CC1 [Example 6, 6-(2,6-dichlorophenyl)-2-{[4-(4-methylpiperazin-1-yl)phenyl]amino}-8,9-dihydropyrimido[4,5-e]indolizin-5(7H)-one] | 5.7
CN1CCN(c2ccc(Nc3ncc4c(=O)c(-c5c(Cl)cccc5Cl)cn(-c5ccncc5)c4n3)cc2)CC1 [Example 7, 6-(2,6-dichlorophenyl)-2-{[4-(4-methylpiperazin-1-yl)phenyl]amino}-8-(pyridin-4-yl)pyrido[2,3-d]pyrimidin-5(8H)-one] | 0.6
CN1CCN(c2ccc(Nc3ncc4c(=O)c(-c5c(Cl)cccc5Cl)cn(C)c4n3)cc2)CC1 [Example 8, 6-(2,6-dichlorophenyl)-8-methyl-2-{[4-(4-methylpiperazin-1-yl)phenyl]amino}pyrido[2,3-d]pyrimidin-5(8H)-one] | 0.3
CN1CCN(c2ccc(Nc3ncc4c(=O)c(-c5c(Cl)cccc5Cl)cn(-c5ccc(F)cc5)c4n3)cc2)CC1 [Example 9, 6-(2,6-dichlorophenyl)-8-(4-fluorophenyl)-2-{[4-(4-methylpiperazin-1-yl)phenyl]amino}pyrido[2,3-d]pyrimidin-5(8H)-one] | < 1
CN1CCN(c2ccc(Nc3ncc4c(=O)c(-c5c(Cl)cccc5Cl)cn(C5CC5)c4n3)cc2)CC1 [Example 10, 8-cyclopropyl-6-(2,6-dichlorophenyl)-2-{[4-(4-methylpiperazin-1-yl)phenyl]amino}pyrido[2,3-d]pyrimidin-5(8H)-one] | < 1
CN1CCN(c2ccc(Nc3ncc4c(=O)c(-c5c(Cl)cccc5Cl)cn(CC(F)(F)F)c4n3)cc2)CC1 [Example 11, 6-(2,6-dichlorophenyl)-2-{[4-(4-methylpiperazin-1-yl)phenyl]amino}-8-(2,2,2-trifluoroethyl)pyrido[2,3-d]pyrimidin-5(8H)-one] | 3
CN1CCN(c2ccc(Nc3ncc4c(=O)c(-c5c(Cl)cccc5Cl)cn(Cc5ccncc5)c4n3)cc2)CC1 [Example 12, 6-(2,6-dichlorophenyl)-2-{[4-(4-methylpiperazin-1-yl)phenyl]amino}-8-(pyridin-4-ylmethyl)pyrido[2,3-d]pyrimidin-5(8H)-one] | 14

Next, values leading:

Ki [nM] | SMILES
24 | CN(C)CCn1cc(-c2c(Cl)cccc2Cl)c(=O)c2cnc(Nc3ccc(N4CCN(C)CC4)cc3)nc21 [Example 13, 6-(2,6-dichlorophenyl)-8-[2-(dimethylamino)ethyl]-2-{[4-(4-methylpiperazin-1-yl)phenyl]amino}pyrido[2,3-d]pyrimidin-5(8H)-one]
0.3 | CN1Cc2cc(Nc3ncc4c(=O)c(-c5c(Cl)cccc5Cl)cn(C)c4n3)ccc2C2(CC2)C1 [Example 14, 6-(2,6-dichlorophenyl)-8-methyl-2-[(2′-methyl-2′,3′-dihydro-1′H-spiro[cyclopropane-1,4′-isoquinolin]-7′-yl)amino]pyrido[2,3-d]pyrimidin-5(8H)-one]
0.6 | CN1CCN(c2ccc(Nc3ncc4c(=O)c(-c5c(Cl)cccc5Cl)cn(C5CCC5)c4n3)cc2)CC1 [Example 15, 8-cyclobutyl-6-(2,6-dichlorophenyl)-2-{[4-(4-methylpiperazin-1-yl)phenyl]amino}pyrido[2,3-d]pyrimidin-5(8H)-one]
20 | CN1CCN(c2ccc(Nc3ncc4c(=O)c(-c5c(Cl)cccc5Cl)cn(CC(C)(C)O)c4n3)cc2)CC1 [Example 16, 6-(2,6-dichlorophenyl)-8-(2-hydroxy-2-methylpropyl)-2-{[4-(4-methylpiperazin-1-yl)phenyl]amino}pyrido[2,3-d]pyrimidin-5(8H)-one]
0.2 | CN1Cc2cc(Nc3ncc4c(=O)c(-c5c(Cl)cccc5Cl)cn(C5CC5)c4n3)ccc2C2(CC2)C1 [Example 17, 8-cyclopropyl-6-(2,6-dichlorophenyl)-2-[(2′-methyl-2′,3′-dihydro-1′H-spiro[cyclopropane-1,4′-isoquinolin]-7′-yl)amino]pyrido[2,3-d]pyrimidin-5(8H)-one]
0.3 | CN1CCN(c2ccc(Nc3ncc4c(=O)c(-c5c(Cl)cccc5Cl)c[nH]c4n3)cc2)CC1 [Example 18, 6-(2,6-dichlorophenyl)-2-{[4-(4-methylpiperazin-1-yl)phenyl]amino}pyrido[2,3-d]pyrimidin-5(8H)-one]
0.3 | Cc1cc(Nc2ncc3c(=O)c(-c4c(Cl)cccc4Cl)cn(C)c3n2)ccc1N1CCCN(C)CC1 [Example 19, 6-(2,6-dichlorophenyl)-8-methyl-2-{[3-methyl-4-(4-methyl-1,4-diazepan-1-yl)phenyl]amino}pyrido[2,3-d]pyrimidin-5(8H)-one]
0.3 | CN1Cc2cc(Nc3ncc4c(=O)c(-c5c(Cl)cccc5Cl)cn(C)c4n3)ccc2C(C)(C)C1 [Example 20, 6-(2,6-dichlorophenyl)-8-methyl-2-[(2,4,4-trimethyl-1,2,3,4-tetrahydroisoquinolin-7-yl)amino]pyrido[2,3-d]pyrimidin-5(8H)-one]
0.3 | Cn1cc(-c2c(Cl)cccc2Cl)c(=O)c2cnc(Nc3ccc4c(c3)CNCC43CC3)nc21 [Example 21, 6-(2,6-dichlorophenyl)-2-(2′,3′-dihydro-1′H-spiro[cyclopropane-1,4′-isoquinolin]-7′-ylamino)-8-methylpyrido[2,3-d]pyrimidin-5(8H)-one]
0.6 | CN(C)C1Cc2ccc(Nc3ncc4c(=O)c(-c5c(Cl)cccc5Cl)cn(C)c4n3)cc2C1 (stereo not drawn) [Example 22, 6-(2,6-dichlorophenyl)-2-{[2-(dimethylamino)-2,3-dihydro-1H-inden-5-yl]amino}-8-methylpyrido[2,3-d]pyrimidin-5(8H)-one]
0.8 | CN1Cc2cc(Nc3ncc4c(=O)c(-c5c(Cl)cccc5Cl)cn(C5CC5)c4n3)ccc2C(C)(C)C1 [Example 23, 8-cyclopropyl-6-(2,6-dichlorophenyl)-2-[(2,4,4-trimethyl-1,2,3,4-tetrahydroisoquinolin-7-yl)amino]pyrido[2,3-d]pyrimidin-5(8H)-one]
0.8 | O=c1c(-c2c(Cl)cccc2Cl)cn(C2CC2)c2nc(Nc3ccc4c(c3)CNCC43CC3)ncc12 [Example 24, 8-cyclopropyl-6-(2,6-dichlorophenyl)-2-(2′,3′-dihydro-1′H-spiro[cyclopropane-1,4′-isoquinolin]-7′-ylamino)pyrido[2,3-d]pyrimidin-5(8H)-one]
1.2 | CN(C)C1Cc2ccc(Nc3ncc4c(=O)c(-c5c(Cl)cccc5Cl)cn(C5CC5)c4n3)cc2C1 (stereo not drawn) [Example 25, 8-cyclopropyl-6-(2,6-dichlorophenyl)-2-{[2-(dimethylamino)-2,3-dihydro-1H-inden-5-yl]amino}pyrido[2,3-d]pyrimidin-5(8H)-one]
1.2 | CC(C)n1cc(-c2c(Cl)cccc2Cl)c(=O)c2cnc(Nc3ccc(N4CCN(C)CC4)cc3)nc21 [Example 26, 6-(2,6-dichlorophenyl)-2-{[4-(4-methylpiperazin-1-yl)phenyl]amino}-8-(propan-2-yl)pyrido[2,3-d]pyrimidin-5(8H)-one]
1.3 | CN1CCN(c2ccc(Nc3ncc4c(=O)c(-c5c(Cl)cccc5Cl)cn(C5COC5)c4n3)cc2)CC1 [Example 27, 6-(2,6-dichlorophenyl)-2-{[4-(4-methylpiperazin-1-yl)phenyl]amino}-8-(oxetan-3-yl)pyrido[2,3-d]pyrimidin-5(8H)-one]
19 | CN1CCN(c2ccc(Nc3ncc4c(=O)c(-c5c(Cl)cccc5Cl)cn(C(C)(C)C)c4n3)cc2)CC1 [Example 28, 8-tert-butyl-6-(2,6-dichlorophenyl)-2-{[4-(4-methylpiperazin-1-yl)phenyl]amino}pyrido[2,3-d]pyrimidin-5(8H)-one]
6.4 | COc1ccc(Cn2cc(-c3c(Cl)cccc3Cl)c(=O)c3cnc(Nc4ccc5c(c4)CN(C)CC54CC4)nc32)cc1 [Example 29, 6-(2,6-dichlorophenyl)-8-(4-methoxybenzyl)-2-[(2′-methyl-2′,3′-dihydro-1′H-spiro[cyclopropane-1,4′-isoquinolin]-7′-yl)amino]pyrido[2,3-d]pyrimidin-5(8H)-one]
0.2 | CN1Cc2cc(Nc3ncc4c(=O)c(-c5c(Cl)cccc5Cl)c[nH]c4n3)ccc2C2(CC2)C1 [Example 30, 6-(2,6-dichlorophenyl)-2-[(2′-methyl-2′,3′-dihydro-1′H-spiro[cyclopropane-1,4′-isoquinolin]-7′-yl)amino]pyrido[2,3-d]pyrimidin-5(8H)-one]
